Columns and labels:
[1] = target: T1, wtKIT (Homo sapiens, UniProt P10721); assay: HTRF biochemical assay, wtKIT (phosphorylation of a peptide substrate); conditions: Table 4
T1 construct: 1888289AM in the reaction mixtures
Summary of the method: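 HTRF read-out of FAM-peptide (1 µM) phosphorylation after anti-phosphotyrosine antibody addition and EDTA quench. Reaction: 5.0 nM wtKIT, 400 µM ATP, 10 mM Mn2+, HEPES pH 7.5, 1% DMSO, 3 h, 25 °C; optional enzyme-compound preincubation; enzyme level set for 10-20% conversion.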

[2] = target: T1, wtKIT; assay: Caliper biochemical assay, wtKIT; conditions: Table 6, read-out: KIT Biochemical IC50 avg
Procedure: Enzyme, substrate, and cofactors (ATP and Mn^2+) are combined in a well of a microtiter plate and incubated for 3 hours at 25° C. At the end of the incubation, the reaction is quenched by the addition of an EDTA-containing buffer. Substrate and product are separated electrophoretically using the microfluidic-based LabChip 3000 Drug Discovery System from Caliper Life Sciences* and quantitated by fluorescence intensity.
The substrate used in the CSF-1R and PDGFRα assay is FAM-[…]-CONH2 (FAM is carboxyfluorescein). Peptide should be >95% purity. The substrate for the KIT assay is FAM-[…]-NH2.
• 1. To a well of a 384-well plate add 5 μL of 2× enzyme buffer (or control) • 2. Add 100 nL of 100× compound. • 3. Add 5 μL of 2× substrate buffer. • 4. Incubate plate at 25° C. for 3 hours. • 5. Add 10 uL of […]. • 6. Read plate LabChip 3000 Drug Discovery System
• 3 hours at 25° C. where 100% Inhibitor: No enzyme.
• 100 mM HEPES, pH 7.5 0.1% BSA • 0.01% Triton X-100 • 1 mM DTT • 10 mM MnCl2 • 10 μM Sodium Orthovanadate • 10 μM Beta-Glycerophosphate • 400 μM ATP • 1% DMSO (from compound) • 1 μM FAM-[…]-CONH2 5.0 nM wtKIT Enzyme (1888289AM)* • *Specific activity may vary from lot to lot. Enzyme concentration may need to be adjusted to yield 10-20% conversion of substrate to product.

[3] = Kinetic solubility assay; type: physicochemical; conditions: kinetic solubility, 50 mM PB (pH 7.4), shaken 24 hours at RT
Procedure: 10 μL of 10 mM in DMSO of test article and control compounds was added into lower chambers of whatman miniuniprep vials, respectively. 490 μL of 50 mM PB (pH 7.4) was then added into lower chambers of the whatman miniuniprep vials, respectively. […] Miniuniprep vials were shaken for 24 hours at RT at the speed of 800 rpm, centrifuged 20 minutes (eg. 4000 rpm) and the filtrates were analyzed by UPLC-UV/HPLC-UV system to calculate the concentration with standard curve.
Filter Membrane: Miniuniprep (PTFE Filter Media with Polypropylene Housing) Cat. No. UN203NPUORG, GE Halthcare Whatman.

[4] = target: T2, BCRP (BCRP-MDCKII monolayer) (Homo sapiens, UniProt Q9UNQ0); assay: MDCKII-BCRP bidirectional transport assay; type: in vitro ADME; conditions: for MDCK-BCRP: Papp A-B: apical to basolateral
T2 construct: host or cells: MDCKII (canine kidney) cells
T2 sequence (Q9UNQ0 1-655): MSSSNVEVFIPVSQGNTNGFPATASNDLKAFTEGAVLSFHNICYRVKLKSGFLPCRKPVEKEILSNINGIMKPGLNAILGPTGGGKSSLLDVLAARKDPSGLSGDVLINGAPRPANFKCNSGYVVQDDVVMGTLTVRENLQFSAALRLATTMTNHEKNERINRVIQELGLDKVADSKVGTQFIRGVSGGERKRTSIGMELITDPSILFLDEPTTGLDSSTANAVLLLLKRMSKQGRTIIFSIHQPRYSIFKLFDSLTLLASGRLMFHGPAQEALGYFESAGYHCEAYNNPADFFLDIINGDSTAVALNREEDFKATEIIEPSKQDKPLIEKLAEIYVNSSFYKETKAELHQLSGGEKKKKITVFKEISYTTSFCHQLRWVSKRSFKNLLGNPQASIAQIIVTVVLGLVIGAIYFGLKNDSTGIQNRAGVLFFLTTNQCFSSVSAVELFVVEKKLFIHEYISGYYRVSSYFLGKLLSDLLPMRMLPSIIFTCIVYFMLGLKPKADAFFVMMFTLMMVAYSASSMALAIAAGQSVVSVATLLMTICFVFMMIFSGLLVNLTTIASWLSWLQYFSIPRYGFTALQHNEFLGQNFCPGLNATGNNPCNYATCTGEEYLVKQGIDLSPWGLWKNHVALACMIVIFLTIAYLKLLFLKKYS
Procedure: Exemplary compounds were tested for cell permeability in Caco-2, MDCKII-MDR1 and MDCKII-BCRP cell lines with efflux transporter engagement inferred from the efflux ratios determined. Procedures and results are described below. […] This feature of certain compounds is in part due to efflux transporter engagement. See, for instance, exemplary such compounds included in data tables below.
The reference compound Teriflunomide and test compounds are tested in the bidirectional assay. Test compound and reference compounds incubations were tested in duplicates.
The transport assay can be performed between days 12 to day 15 using ready to use PreadyPort™ BCRP-MDCKII monolayer in 96 well plate.
The medium was aspirated from the apical and basal compartments and 75 and 235 μL assay buffer was added to each of the 96 wells of apical and basal compartments of the PreadyPort™ plate.
The plates were pre-incubated for 15 min at 37° C. with 5% CO2 in humidified atmosphere. After preincubation the assay buffer was removed from the apical and basal inserts of the plate.
In apical to basolateral (A→B) transport, 75 μL of test or reference compound working solution to apical inserts and 235 μL of blank assay buffer were added to the corresponding basal compartments.
In basolateral to apical transport, 235 μL of test or reference compound working solution to the basal compartments and 75 μL of blank assay buffer solution were added to corresponding apical inserts.
The sandwich plate was incubated for 120 min in incubator at 5% CO2 and 37° C.
After incubation, 60 μL was transferred from receiver and donor compartments to collection plate.
For donor and C0 samples 20-fold dilution was accomplished by mixing 60 μL of collected sample with 1140 μL of transport buffer and from that solution aliquot 60 μL transfer Both receiver and donor samples were processed by adding […] of acetonitrile containing internal standard (60 μL of sample+240 μL of acetonitrile containing glyburide as internal standard, 125 ng/mL) and vortexing the samples. The compound concentration was measured in all samples using respective calibration standards by LC-MS/MS.
Calculate the Papp and recovery using the given formula:
[formula] [formula] • Where: dQ/dt=Permeability rate in μM/see • C0=Initial concentration in μM • A=Membrane surface area (0.33 cm^2) • V=Volume of receiver chamber • Cend, a=concentration in acceptor well at end of incubation • Cend, d=concentration in donor well at end of incubation • CHBSS=loading concentration measured in HBSS

T1 sequence (P10721 26-976): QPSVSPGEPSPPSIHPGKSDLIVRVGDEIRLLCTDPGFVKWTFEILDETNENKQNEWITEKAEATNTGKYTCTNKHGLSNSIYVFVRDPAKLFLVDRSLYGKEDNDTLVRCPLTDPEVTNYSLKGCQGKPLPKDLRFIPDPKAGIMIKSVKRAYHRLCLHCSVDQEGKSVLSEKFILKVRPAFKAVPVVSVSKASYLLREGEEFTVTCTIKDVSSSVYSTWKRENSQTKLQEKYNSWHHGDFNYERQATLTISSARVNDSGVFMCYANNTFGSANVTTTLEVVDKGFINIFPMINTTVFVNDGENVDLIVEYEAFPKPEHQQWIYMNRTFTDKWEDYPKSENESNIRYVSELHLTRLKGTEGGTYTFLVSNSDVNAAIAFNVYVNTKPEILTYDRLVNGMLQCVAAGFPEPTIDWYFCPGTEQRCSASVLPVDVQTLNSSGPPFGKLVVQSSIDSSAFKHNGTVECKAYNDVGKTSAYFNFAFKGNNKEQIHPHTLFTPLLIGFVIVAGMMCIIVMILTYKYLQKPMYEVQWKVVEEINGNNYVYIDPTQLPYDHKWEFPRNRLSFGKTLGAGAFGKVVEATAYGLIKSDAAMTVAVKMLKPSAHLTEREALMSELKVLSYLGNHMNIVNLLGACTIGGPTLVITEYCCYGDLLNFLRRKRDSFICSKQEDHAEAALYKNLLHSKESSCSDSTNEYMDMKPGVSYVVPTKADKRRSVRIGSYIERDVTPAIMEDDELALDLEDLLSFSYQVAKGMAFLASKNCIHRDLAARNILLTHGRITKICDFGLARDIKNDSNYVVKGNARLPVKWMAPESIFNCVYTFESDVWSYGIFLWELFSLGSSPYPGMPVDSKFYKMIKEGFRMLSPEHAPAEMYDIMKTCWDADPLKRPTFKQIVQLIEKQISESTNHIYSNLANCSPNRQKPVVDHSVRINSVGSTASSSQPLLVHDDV

Compound | IC50 [1] [nM] | IC50 [2] [nM] | Solubility (μM) [3] | MDCK-BCRP: Efflux Ratio [4] | MDCK-BCRP: Papp A-B [4]
Cc1ccc(-c2noc([C@@H]3CC(=O)N3)n2)cc1NC(=O)c1cnc2ccccn12 (racemic) [Compound I-224] | 50 to 500 | ≤ 50 | * (a solubility greater than 50 μM) |  | 
COC1(OC)CCC1c1nc(-c2ccc(C)c(NC(=O)c3cnc4ccccn34)c2)no1 (racemic) [Compound I-308] |  | ≤ 50 | *** (a solubility greater than 2 μM and less than or equal to 10 μM) | 1.13 | 16.3 10^−6 cm/s
Cc1ccc(-c2noc(C3(C)CCCC3(F)F)n2)cc1NC(=O)c1cnc2ccccn12 (racemic) [Compound I-374] |  | ≤ 50 | **** (a solubility less than or equal to 2 μM) |  | 
Cc1nc(-c2ccc(C)c(NC(=O)c3cnc4ccc(N5CCCCC5)cn34)c2)no1 [Compound I-206] | ≤ 50 | ≤ 50 | **** (a solubility less than or equal to 2 μM) |  | 
Cc1ccc(-c2noc([C@H]3C[C@@H]3F)n2)cc1NC(=O)c1cnc2cc(C(N)=O)ccn12 [Compound I-207] | ≤ 50 | ≤ 50 | **** (a solubility less than or equal to 2 μM) |  | 
Cc1nc(-c2ccc(C)c(NC(=O)c3cnc4ccc(N5CCOCC5)cn34)c2)no1 [Compound I-218] | ≤ 50 | ≤ 50 | **** (a solubility less than or equal to 2 μM) |  | 
Cc1ccc(-c2noc([C@H]3CC(=O)CN3)n2)cc1NC(=O)c1cnc2ccccn12 [Compound I-223] | 50 to 500 | ≤ 50 |  |  | 
Cc1ccc(-c2noc([C@H]3C[C@@H]3F)n2)cc1NC(=O)c1cnc2cc(NS(=O)(=O)c3c(C)noc3C)ccn12 [Compound I-226] | 50 to 500 | 50 to 500 | * (a solubility greater than 50 μM) |  | 
COC(=O)N1CC(c2nc(-c3ccc(C)c(NC(=O)c4cnc5ccc(OC[C@@H](C)O)cn45)c3)no2)C1 [Compound I-227] | 50 to 500 | ≤ 50 | ** (a solubility greater than 10 μM and less than or equal to 50 μM) |  | 
CCNc1ccn2c(C(=O)Nc3cc(-c4noc(C)n4)ccc3C)cnc2c1 [Compound I-229] | ≤ 50 | ≤ 50 | **** (a solubility less than or equal to 2 μM) |  | 
Cc1ccc(-c2noc([C@H]3CCN3S(=O)(=O)c3cccnc3)n2)cc1NC(=O)c1cnc2ccccn12 [Compound I-233] | 50 to 500 | 50 to 500 | ** (a solubility greater than 10 μM and less than or equal to 50 μM) |  | 
COC(=O)N1CC(c2nc(-c3ccc(C)c(NC(=O)c4cnc5ccc(OCC(C)(C)O)cn45)c3)no2)C1 [Compound I-239] | 50 to 500 | 50 to 500 | ** (a solubility greater than 10 μM and less than or equal to 50 μM) |  | 
Cc1ccc(-c2noc([C@H]3CCN3)n2)cc1NC(=O)c1cnc2cc(C#N)ccn12 [Compound I-244] | 50 to 500 | 50 to 500 | * (a solubility greater than 50 μM) |  | 
COC(=O)N1CC(c2nc(-c3ccc(C)c(NC(=O)c4cnc5ccc(OCCO)cn45)c3)no2)C1 [Compound I-247] | 50 to 500 | ≤ 50 | *** (a solubility greater than 2 μM and less than or equal to 10 μM) |  | 
Cc1ccc(-c2noc(C3CC3F)n2)cc1NC(=O)c1cnc2ccc(Nc3ccc(OC(F)F)cc3)cn12 (stereo not drawn) [Compound I-284] |  | ≤ 50 | *** (a solubility greater than 2 μM and less than or equal to 10 μM) |  | 
COc1ccc(Nc2ccn3c(C(=O)Nc4cc(-c5noc([C@H]6C[C@@H]6F)n5)ccc4C)cnc3c2)cc1OC [Compound I-285] |  | ≤ 50 | **** (a solubility less than or equal to 2 μM) |  | 
Cc1ccc(-c2noc([C@H]3C[C@@H]3F)n2)cc1NC(=O)c1cnc2ccc(Cl)nn12 [Compound I-289] |  | 50 to 500 | *** (a solubility greater than 2 μM and less than or equal to 10 μM) |  | 
Cc1ccc(-c2noc([C@H]3C[C@@H]3F)n2)cc1NC(=O)c1cnc2ccc(Nc3ccc4c(c3)OCCO4)cn12 [Compound I-290] |  | ≤ 50 | *** (a solubility greater than 2 μM and less than or equal to 10 μM) |  | 
Cc1cc(C)cc(Nc2ccn3c(C(=O)Nc4cc(-c5noc([C@H]6C[C@@H]6F)n5)ccc4C)cnc3c2)c1 [Compound I-292] |  | ≤ 50 | *** (a solubility greater than 2 μM and less than or equal to 10 μM) |  | 
Cc1ccc(-c2noc([C@H]3C[C@@H]3F)n2)cc1NC(=O)c1cnc2cc(N3CCC(C)CC3)ccn12 [Compound I-303] |  | ≤ 50 | **** (a solubility less than or equal to 2 μM) |  | 
Cc1ccc(-c2noc(C3C(C)CC3C)n2)cc1NC(=O)c1cnc2ccccn12 (stereo not drawn) [Compound I-315] |  | ≤ 50 | **** (a solubility less than or equal to 2 μM) |  | 
CC(C)(C)OC(=O)N1CC(c2nc(-c3ccc(Cl)c(NC(=O)c4cnc5ccccn45)c3)no2)C1 [Compound I-333] |  | ≤ 50 | **** (a solubility less than or equal to 2 μM) |  | 
Cc1ccc(-c2noc(C3CCC3F)n2)cc1NC(=O)c1cnc2ccccn12 (stereo not drawn) [Compound I-400] |  |  | **** (a solubility less than or equal to 2 μM) | 1.44 | 11.7 10^−6 cm/s
